Data from ChEMBL document CHEMBL1268837, “Novel CGRP receptor antagonists from central amide replacements causing a reversal of preferred chirality” (Bioorg Med Chem Lett, 2010).

Legend:
[1] = molecular target: T1, Calcitonin gene-related peptide type 1 receptor (Homo sapiens, UniProt O60894+Q16602); assay: Binding affinity to human recombinant CGRP receptor
[2] = molecular target: T1, Calcitonin gene-related peptide type 1 receptor; assay: Displacement of [125I]hCGRP from human cloned CGRP receptor expressed in HEK293 cells; format: cell-based

T1 sequence (Q16602 whole entry, one chain of several): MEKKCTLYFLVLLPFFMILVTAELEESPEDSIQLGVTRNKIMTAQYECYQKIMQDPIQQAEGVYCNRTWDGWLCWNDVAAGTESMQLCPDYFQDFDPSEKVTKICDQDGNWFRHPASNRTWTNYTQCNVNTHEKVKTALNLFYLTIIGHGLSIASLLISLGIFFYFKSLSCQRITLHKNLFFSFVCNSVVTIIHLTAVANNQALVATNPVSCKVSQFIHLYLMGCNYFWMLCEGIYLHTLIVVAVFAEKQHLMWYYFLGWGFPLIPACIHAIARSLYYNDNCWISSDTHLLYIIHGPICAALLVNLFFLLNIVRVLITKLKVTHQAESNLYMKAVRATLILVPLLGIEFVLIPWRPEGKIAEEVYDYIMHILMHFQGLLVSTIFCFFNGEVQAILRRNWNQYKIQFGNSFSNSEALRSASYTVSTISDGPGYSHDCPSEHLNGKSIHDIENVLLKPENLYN

Row | Compound | Ki [1] | Ki [2]
1 | CN1C(=O)NC(=O)C12Cc1cc3ccc(CN(Cc4ccccc4)C(=O)C(C)(C)C)nc3cc1C2 (stereo unspecified) | 2.2 nM | –
2 | CN1C(=O)NC(=O)[C@]12Cc1cc3cc(CN(Cc4ccccc4)C(=O)C(C)(C)C)cnc3cc1C2 | 12 nM | –
3 | CN1C(=O)NC(=O)C12Cc1cc3cc(CN(Cc4ccccc4)C(=O)C(C)(C)C)cnc3cc1C2 (stereo unspecified) | 35 nM | –
4 | CC(C)(C)C(=O)N(Cc1cnc2nc3c(cc2c1)C[C@@]1(C3)C(=O)Nc2ncccc21)[C@@H]1CCc2ccccc21 | – | 0.15 nM
5 | CC(C)(C)C(=O)N(Cc1ccc2nc3c(cc2c1)C[C@@]1(C3)C(=O)Nc2ncccc21)[C@@H]1CCc2ccccc21 | – | 0.11 nM
6 | CC(C)(C)C(=O)N(Cc1cnc2cc3c(cc2c1)C[C@@]1(C3)C(=O)Nc2ncccc21)C[C@@H]1CCc2ccccc21 | – | 0.037 nM

Results, then the compound that gave them:

Row | Ki [1] | Ki [2] | Compound
7 | – | 0.3 nM | CC1(C)CC[C@@H](c2cc(F)cc(F)c2)N(Cc2cnc3cc4c(cc3c2)C[C@@]2(C4)C(=O)Nc3ncccc32)C1=O
8 | – | 0.69 nM | CC(C)(C)C(=O)N(Cc1cc(F)cc(F)c1)Cc1cnc2cc3c(cc2c1)C[C@@]1(C3)C(=O)Nc2ncccc21
9 | – | 0.12 nM | C[C@H](c1cc(F)cc(F)c1)N(Cc1cnc2cc3c(cc2c1)C[C@@]1(C3)C(=O)Nc2ncccc21)C(=O)C(C)(C)C
10 | – | 1.3 nM | CC(C)(C)C(=O)N(Cc1ccccc1)Cc1cnc2cc3c(cc2c1)C[C@@]1(C3)C(=O)Nc2ncccc21
11 | – | 0.1 nM | C[C@H](c1ccccc1)N(Cc1cnc2cc3c(cc2c1)C[C@@]1(C3)C(=O)Nc2ncccc21)C(=O)C(C)(C)C
